Results taken from a compilation of properties of binary mixtures (doi:10.1007/s10953-017-0695-7).

Test: xn = mol fraction of the nth substance listed
Conditions: 101 kPa

## CCCCCO + CCCCCC[n+]1ccn(C)c1.[Cl-]
293.15 K, x1 = 1
  viscosity: 3.99 mPa·s
313.15 K, x1 = 1
  viscosity: 2.29 mPa·s
323.15 K, x1 = 1
  viscosity: 1.79 mPa·s
333.15 K, x1 = 1
  viscosity: 1.39 mPa·s

## OCCO + CCCCCC[n+]1ccn(C)c1.[Cl-]
293.15 K, x1 = 1
  viscosity: 21.35 mPa·s
303.15 K, x1 = 1
  viscosity: 14.1 mPa·s
313.15 K, x1 = 1
  viscosity: 9.74 mPa·s
323.15 K, x1 = 1
  viscosity: 7.02 mPa·s
333.15 K, x1 = 1
  viscosity: 5.2 mPa·s

## CCCCCC[n+]1ccn(C)c1.[Cl-] + CCCCCO
293.15 K, x1 = 0.0042
  viscosity: 4.14 mPa·s
293.15 K, x1 = 0.0166
  viscosity: 4.56 mPa·s
293.15 K, x2 = 0
  viscosity: 11400 mPa·s
293.15 K, x2 = 0.1514
  viscosity: 3550 mPa·s
293.15 K, x2 = 0.2971
  viscosity: 1014 mPa·s
293.15 K, x2 = 0.5018
  viscosity: 182.4 mPa·s
293.15 K, x2 = 0.6066
  viscosity: 75.1 mPa·s
293.15 K, x2 = 0.7018
  viscosity: 31.71 mPa·s
293.15 K, x2 = 0.8012
  viscosity: 14.74 mPa·s
293.15 K, x2 = 0.8825
  viscosity: 8.5 mPa·s
293.15 K, x2 = 0.9494
  viscosity: 5.73 mPa·s
293.15 K, x2 = 0.9749
  viscosity: 4.83 mPa·s
303.15 K, x1 = 0.0088
  viscosity: 3.23 mPa·s
303.15 K, x2 = 0
  viscosity: 4206 mPa·s
303.15 K, x2 = 0.2971
  viscosity: 491 mPa·s
303.15 K, x2 = 0.5018
  viscosity: 108.3 mPa·s
303.15 K, x2 = 0.6066
  viscosity: 48.8 mPa·s
303.15 K, x2 = 0.7018
  viscosity: 22.14 mPa·s
303.15 K, x2 = 0.8012
  viscosity: 10.86 mPa·s
303.15 K, x2 = 0.849
  viscosity: 7.85 mPa·s
303.15 K, x2 = 0.8825
  viscosity: 6.37 mPa·s
303.15 K, x2 = 0.9494
  viscosity: 4.29 mPa·s
303.15 K, x2 = 0.9749
  viscosity: 3.63 mPa·s
313.15 K, x1 = 0.0088
  viscosity: 2.49 mPa·s
313.15 K, x1 = 0.0166
  viscosity: 2.62 mPa·s
313.15 K, x2 = 0
  viscosity: 1718 mPa·s
313.15 K, x2 = 0.1514
  viscosity: 803 mPa·s
313.15 K, x2 = 0.5018
  viscosity: 68.1 mPa·s
313.15 K, x2 = 0.6066
  viscosity: 32.87 mPa·s
313.15 K, x2 = 0.7018
  viscosity: 16.01 mPa·s
313.15 K, x2 = 0.849
  viscosity: 6.03 mPa·s
313.15 K, x2 = 0.8825
  viscosity: 4.92 mPa·s
313.15 K, x2 = 0.9494
  viscosity: 3.28 mPa·s
313.15 K, x2 = 0.9749
  viscosity: 2.81 mPa·s
323.15 K, x1 = 0.0042
  viscosity: 1.85 mPa·s
323.15 K, x1 = 0.0088
  viscosity: 1.92 mPa·s
323.15 K, x1 = 0.0166
  viscosity: 2.03 mPa·s
323.15 K, x2 = 0.1514
  viscosity: 418 mPa·s
323.15 K, x2 = 0.2971
  viscosity: 148.2 mPa·s
323.15 K, x2 = 0.5018
  viscosity: 44.92 mPa·s
323.15 K, x2 = 0.6066
  viscosity: 23.14 mPa·s
323.15 K, x2 = 0.7018
  viscosity: 11.88 mPa·s
323.15 K, x2 = 0.849
  viscosity: 4.68 mPa·s
323.15 K, x2 = 0.8825
  viscosity: 3.87 mPa·s
323.15 K, x2 = 0.9494
  viscosity: 2.56 mPa·s
323.15 K, x2 = 0.9749
  viscosity: 2.17 mPa·s
333.15 K, x1 = 0.0042
  viscosity: 1.46 mPa·s
333.15 K, x1 = 0.0088
  viscosity: 1.54 mPa·s
333.15 K, x1 = 0.0166
  viscosity: 1.61 mPa·s
333.15 K, x2 = 0
  viscosity: 398 mPa·s
333.15 K, x2 = 0.1514
  viscosity: 192.5 mPa·s
333.15 K, x2 = 0.2971
  viscosity: 91 mPa·s
333.15 K, x2 = 0.5018
  viscosity: 31.33 mPa·s
333.15 K, x2 = 0.6066
  viscosity: 16.9 mPa·s
333.15 K, x2 = 0.8012
  viscosity: 4.99 mPa·s
333.15 K, x2 = 0.849
  viscosity: 3.76 mPa·s
333.15 K, x2 = 0.8825
  viscosity: 3.06 mPa·s
333.15 K, x2 = 0.9494
  viscosity: 2.02 mPa·s
333.15 K, x2 = 0.9749
  viscosity: 1.71 mPa·s

## CCCCCC[n+]1ccn(C)c1.[Cl-] + OCCO
293.15 K, x1 = 0.0061
  viscosity: 21.52 mPa·s
293.15 K, x1 = 0.0124
  viscosity: 21.64 mPa·s
293.15 K, x1 = 0.0188
  viscosity: 21.81 mPa·s
293.15 K, x2 = 0
  viscosity: 11400 mPa·s
293.15 K, x2 = 0.1526
  viscosity: 3449 mPa·s
293.15 K, x2 = 0.3167
  viscosity: 774 mPa·s
293.15 K, x2 = 0.3999
  viscosity: 387 mPa·s
293.15 K, x2 = 0.6987
  viscosity: 46.8 mPa·s
293.15 K, x2 = 0.8026
  viscosity: 29.46 mPa·s
293.15 K, x2 = 0.8897
  viscosity: 24.2 mPa·s
293.15 K, x2 = 0.8998
  viscosity: 23.77 mPa·s
293.15 K, x2 = 0.9152
  viscosity: 23.12 mPa·s
293.15 K, x2 = 0.931
  viscosity: 22.64 mPa·s
293.15 K, x2 = 0.9532
  viscosity: 22.13 mPa·s
293.15 K, x2 = 0.9642
  viscosity: 22.02 mPa·s
293.15 K, x2 = 0.9761
  viscosity: 21.83 mPa·s
303.15 K, x1 = 0.003
  viscosity: 14.18 mPa·s
303.15 K, x1 = 0.0061
  viscosity: 14.23 mPa·s
303.15 K, x1 = 0.0124
  viscosity: 14.24 mPa·s
303.15 K, x2 = 0.1526
  viscosity: 861 mPa·s
303.15 K, x2 = 0.3167
  viscosity: 385 mPa·s
303.15 K, x2 = 0.3999
  viscosity: 210.7 mPa·s
303.15 K, x2 = 0.4977
  viscosity: 102.8 mPa·s
303.15 K, x2 = 0.6002
  viscosity: 53 mPa·s
303.15 K, x2 = 0.6987
  viscosity: 30.76 mPa·s
303.15 K, x2 = 0.8026
  viscosity: 19.81 mPa·s
303.15 K, x2 = 0.8897
  viscosity: 16.2 mPa·s
303.15 K, x2 = 0.8998
  viscosity: 16.02 mPa·s
303.15 K, x2 = 0.9152
  viscosity: 15.52 mPa·s
303.15 K, x2 = 0.931
  viscosity: 15.24 mPa·s
303.15 K, x2 = 0.9532
  viscosity: 14.78 mPa·s
303.15 K, x2 = 0.9642
  viscosity: 14.71 mPa·s
303.15 K, x2 = 0.9761
  viscosity: 14.45 mPa·s
313.15 K, x1 = 0.003
  viscosity: 9.77 mPa·s
313.15 K, x1 = 0.0061
  viscosity: 9.86 mPa·s
313.15 K, x1 = 0.0124
  viscosity: 9.94 mPa·s
313.15 K, x2 = 0
  viscosity: 1718 mPa·s
313.15 K, x2 = 0.1526
  viscosity: 629 mPa·s
313.15 K, x2 = 0.3167
  viscosity: 214.7 mPa·s
313.15 K, x2 = 0.3999
  viscosity: 124.2 mPa·s
313.15 K, x2 = 0.4977
  viscosity: 65.1 mPa·s
313.15 K, x2 = 0.6002
  viscosity: 35.51 mPa·s
313.15 K, x2 = 0.8026
  viscosity: 13.95 mPa·s
313.15 K, x2 = 0.8998
  viscosity: 11.25 mPa·s
313.15 K, x2 = 0.9152
  viscosity: 10.98 mPa·s
313.15 K, x2 = 0.931
  viscosity: 10.67 mPa·s
313.15 K, x2 = 0.9532
  viscosity: 10.37 mPa·s
323.15 K, x1 = 0.003
  viscosity: 7.07 mPa·s
323.15 K, x1 = 0.0124
  viscosity: 7.17 mPa·s
323.15 K, x1 = 0.0188
  viscosity: 7.24 mPa·s
323.15 K, x2 = 0.1526
  viscosity: 326 mPa·s
323.15 K, x2 = 0.3167
  viscosity: 127.1 mPa·s
323.15 K, x2 = 0.3999
  viscosity: 77.3 mPa·s
323.15 K, x2 = 0.4977
  viscosity: 42.5 mPa·s
323.15 K, x2 = 0.8026
  viscosity: 10.18 mPa·s
323.15 K, x2 = 0.8897
  viscosity: 8.37 mPa·s
323.15 K, x2 = 0.9152
  viscosity: 7.98 mPa·s
323.15 K, x2 = 0.931
  viscosity: 7.73 mPa·s
323.15 K, x2 = 0.9532
  viscosity: 7.51 mPa·s
323.15 K, x2 = 0.9761
  viscosity: 7.27 mPa·s
333.15 K, x1 = 0.003
  viscosity: 5.21 mPa·s
333.15 K, x1 = 0.0124
  viscosity: 5.33 mPa·s
333.15 K, x1 = 0.0188
  viscosity: 5.4 mPa·s
333.15 K, x2 = 0
  viscosity: 398 mPa·s
333.15 K, x2 = 0.3167
  viscosity: 79.6 mPa·s
333.15 K, x2 = 0.3999
  viscosity: 51.2 mPa·s
333.15 K, x2 = 0.6002
  viscosity: 18.06 mPa·s
333.15 K, x2 = 0.8026
  viscosity: 7.71 mPa·s
333.15 K, x2 = 0.8897
  viscosity: 6.32 mPa·s
333.15 K, x2 = 0.8998
  viscosity: 6.18 mPa·s
333.15 K, x2 = 0.9152
  viscosity: 6 mPa·s
333.15 K, x2 = 0.931
  viscosity: 5.82 mPa·s
333.15 K, x2 = 0.9642
  viscosity: 5.53 mPa·s
333.15 K, x2 = 0.9761
  viscosity: 5.46 mPa·s
